Experimental data as given in patent US20170362228A1, “TETRAHYDRO-PYRIDO[3,4-b]INDOLE ESTROGEN RECEPTOR MODULATORS AND USES THEREOF” (Genentech, Inc., priority 2016, published 2017).
Read-outs that look alike come from different tables or passages of the source.

Experiments:
[1] = biological target: T1, estrogen receptor alpha (ESR1) (Homo sapiens, UniProt P03372); test: Breast Cancer Cell ERa High Content Fluorescence Imaging Degradation Assay (Example 901); format: cell-based; conditions: MCF7 breast cancer cells, 4 hours, plateau of the maximal effect
T1 construct: endogenous in cells; host or cells: MCF7 breast cancer cells
T1 sequence (P03372 1-595): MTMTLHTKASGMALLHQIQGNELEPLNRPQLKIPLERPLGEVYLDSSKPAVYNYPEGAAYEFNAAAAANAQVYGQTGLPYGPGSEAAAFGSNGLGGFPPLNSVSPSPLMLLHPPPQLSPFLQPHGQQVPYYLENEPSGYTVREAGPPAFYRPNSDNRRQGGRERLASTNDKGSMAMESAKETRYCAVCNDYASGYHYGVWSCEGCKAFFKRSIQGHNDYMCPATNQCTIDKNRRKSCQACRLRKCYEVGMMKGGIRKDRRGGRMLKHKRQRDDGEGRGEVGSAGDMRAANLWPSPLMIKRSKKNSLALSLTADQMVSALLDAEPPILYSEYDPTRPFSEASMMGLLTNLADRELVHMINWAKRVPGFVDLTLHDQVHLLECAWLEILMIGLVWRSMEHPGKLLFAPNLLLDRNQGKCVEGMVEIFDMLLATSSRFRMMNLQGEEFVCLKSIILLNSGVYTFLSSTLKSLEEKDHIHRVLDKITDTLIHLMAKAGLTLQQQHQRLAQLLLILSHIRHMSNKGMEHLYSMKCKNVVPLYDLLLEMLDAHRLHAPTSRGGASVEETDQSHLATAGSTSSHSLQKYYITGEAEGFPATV
Summary of the method: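 MCF7 cells in phenol red-free RPMI with 10% charcoal-stripped FBS, exposed to compound at 0.05–835 nM (10-point, 1.8×, duplicate; 0.84% DMSO) for 4 h at 37 °C. Fixed cells immunostained for ESR1 (F10 mAb, Alexa 488) with Hoechst nuclear mask; nuclear ESR1 intensity imaged per cell. DMSO and 5 nM fulvestrant set 0%/100%; EC50 and Sinf by robust fit.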

MCF7 cells = test: In vitro cell proliferation assays (Examples 902 and 903), MCF7; format: cell-based; conditions: read-out: ER-alpha MCF7 HCS (EC50)
[2] = Table 1a, DMSO and Fulvestrant define 0% and 100% changes in ESR1

Row | Structure (SMILES) | ER-alpha MCF7 HCS (S inf) [1, 2] | EC50 (MCF7 cells; Homo sapiens, MCF7, Table 1a) | ER-alpha MCF7 HCS (S inf) ([1]; Table 1b) | EC50 (MCF7 cells; Homo sapiens, MCF7, Table 1b) | EC50 (MCF7 cells; Table 1b)
1 | C[C@@H]1Cc2c([nH]c3ccccc23)[C@@H](c2ccc([C@H](O)C3CN(CCCF)C3)cc2F)N1CC(F)(F)CO [Compound 129, 2,2-difluoro-3-((1R,3R)-1-(2-fluoro-4-((R)-(1-(3-fluoropropyl)azetidin-3-yl)(hydroxy)methyl)phenyl)-3-methyl-1,3,4,9-tetrahydro-2H-pyrido[3,4-b]indol-2-yl)propan-1-ol] | −98.76% | 34 pM | – | – | –
2 | C[C@@H]1Cc2c([nH]c3ccccc23)[C@@H](c2ccc([C@@H](O)C3CN(CCCF)C3)cc2F)N1CC(F)(F)CO [Compound 130, 2,2-difluoro-3-((1R,3R)-1-(2-fluoro-4-((S)-(1-(3-fluoropropyl)azetidin-3-yl)(hydroxy)methyl)phenyl)-3-methyl-1,3,4,9-tetrahydro-2H-pyrido[3,4-b]indol-2-yl)propan-1-ol] | −96.45% | 37 pM | – | – | –
3 | C[C@@H]1Cc2c([nH]c3cc(F)ccc23)[C@@H](c2c(F)cc([C@@H](O)C3CN(CCCF)C3)cc2F)N1CC(F)(F)CO [Compound 141, 3-((1R,3R)-1-(2,6-difluoro-4-((S)-(1-(3-fluoropropyl)azetidin-3-yl)(hydroxy)methyl)phenyl)-7-fluoro-3-methyl-1,3,4,9-tetrahydro-2H-pyrido[3,4-b]indol-2-yl)-2,2-difluoropropan-1-ol] | −100% | 1300 pM | – | – | –
4 | C[C@@H]1Cc2c([nH]c3cccc(F)c23)[C@@H](c2c(F)cc([C@H](O)C3CN(CCCF)C3)cc2F)N1CC(F)(F)CO [Compound 143, 3-((1R,3R)-1-(2,6-difluoro-4-((R)-(1-(3-fluoropropyl)azetidin-3-yl)(hydroxy)methyl)phenyl)-5-fluoro-3-methyl-3,4-dihydro-1H-pyrido[3,4-b]indol-2(9H)-yl)-2,2-difluoropropan-1-ol] | −101% | 35 pM | – | – | –
5 | C[C@@H]1Cc2c([nH]c3cccc(F)c23)[C@@H](c2c(F)cc([C@@H](O)C3CN(CCCF)C3)cc2F)N1CC(F)(F)CO [Compound 144, 3-((1R,3R)-1-(2,6-difluoro-4-((S)-(1-(3-fluoropropyl)azetidin-3-yl)(hydroxy)methyl)phenyl)-5-fluoro-3-methyl-3,4-dihydro-1H-pyrido[3,4-b]indol-2(9H)-yl)-2,2-difluoropropan-1-ol] | −101% | 28 pM | – | – | –
6 | C[C@@H]1Cc2c([nH]c3ccccc23)[C@@H](c2c(F)cc(C(N)C3CN(CCCF)C3)cc2F)N1CC(F)(F)CO (stereo partly drawn) [Compound 145, 3-((1R,3R)-1-(4-(amino(1-(3-fluoropropyl)azetidin-3-yl)methyl)-2,6-difluorophenyl)-3-methyl-3,4-dihydro-1H-pyrido[3,4-b]indol-2(9H)-yl)-2,2-difluoropropan-1-ol] | −103% | 72 pM | – | – | –
7 | C[C@@H]1Cc2c([nH]c3ccccc23)[C@@H](c2c(F)cc(C(F)(F)C3CN(CCCF)C3)cc2F)N1CC(C)(C)F [Compound 146, (1R,3R)-1-(4-(Difluoro(1-(3-fluoropropyl)azetidin-3-yl)methyl)-2,6-difluorophenyl)-2-(2-fluoro-2-methylpropyl)-3-methyl-2,3,4,9-tetrahydro-1H-pyrido[3,4-b]indole] | −96.1% | 260 pM | – | – | –
8 | C[C@@H]1Cc2c([nH]c3ccccc23)[C@@H](c2c(F)cc(C(C#N)C3CN(CCCF)C3)cc2F)N1CC(F)(F)CO (stereo partly drawn) [Compound 150, 2-(4-((1R,3R)-2-(2,2-difluoro-3-hydroxypropyl)-3-methyl-2,3,4,9-tetrahydro-1H-pyrido[3,4-b]indol-1-yl)-3,5-difluorophenyl)-2-(1-(3-fluoropropyl)azetidin-3-yl)acetonitrile] | −94% | 54 pM | – | – | –
9 | C[C@@H]1Cc2c([nH]c3ccccc23)[C@@H](c2c(F)cc(C(O)C3CN(CCC(F)F)C3)cc2F)N1CC(F)(F)CO (stereo partly drawn) [Compound 153, 3-((1R,3R)-1-(4-((1-(3,3-difluoropropyl)azetidin-3-yl)(hydroxy)methyl)-2,6-difluorophenyl)-3-methyl-3,4-dihydro-1H-pyrido[3,4-b]indol-2(9H)-yl)-2,2-difluoropropan-1-ol] | – | – | −92% | 170 pM | –
10 | C[C@@H]1Cc2c([nH]c3ccccc23)[C@@H](c2c(F)cc([C@@](C)(O)C3CN(CCCF)C3)cc2F)N1CC(F)(F)CO [Compound 154, 3-((1R,3R)-1-(2,6-difluoro-4-((S)-1-(1-(3-fluoropropyl)azetidin-3-yl)-1-hydroxyethyl)phenyl)-3-methyl-3,4-dihydro-1H-pyrido[3,4-b]indol-2(9H)-yl)-2,2-difluoropropan-1-ol] | – | – | −98% | 58 pM | –
11 | C[C@@H]1Cc2c([nH]c3ccccc23)[C@@H](c2c(F)cc([C@](C)(O)C3CN(CCCF)C3)cc2F)N1CC(F)(F)CO [Compound 155, 3-((1R,3R)-1-(2,6-difluoro-4-((R)-1-(1-(3-fluoropropyl)azetidin-3-yl)-1-hydroxyethyl)phenyl)-3-methyl-3,4-dihydro-1H-pyrido[3,4-b]indol-2(9H)-yl)-2,2-difluoropropan-1-ol] | – | – | −84% | 740 pM | –
12 | C[C@@H]1Cc2c([nH]c3ccccc23)[C@@H](c2c(F)cc([C@H](F)C3CN(CCCF)C3)cc2F)N1C[C@H](F)CO [Compound 158, (S)-3-((1R,3R)-1-(2,6-difluoro-4-((R)-fluoro(1-(3-fluoropropyl)azetidin-3-yl)methyl)phenyl)-3-methyl-3,4-dihydro-1H-pyrido[3,4-b]indol-2(9H)-yl)-2-fluoropropan-1-ol] | – | – | −101% | 400 pM | –
13 | C[C@@H]1Cc2c([nH]c3ccccc23)[C@@H](c2c(F)cc([C@@H](F)C3CN(CCCF)C3)cc2F)N1C[C@H](F)CO [Compound 159, (S)-3-((1R,3R)-1-(2,6-difluoro-4-((S)-fluoro(1-(3-fluoropropyl)azetidin-3-yl)methyl)phenyl)-3-methyl-3,4-dihydro-1H-pyrido[3,4-b]indol-2(9H)-yl)-2-fluoropropan-1-ol] | – | – | −99% | 81 pM | –
14 | C[C@@H]1Cc2c([nH]c3ccccc23)[C@@H](c2c(F)cc([C@H](O)C3CN(CCCF)C3)cc2F)N1C[C@@H](F)CF [Compound 161] | – | – | −97% | 130 pM | –
15 | C[C@@H]1Cc2c([nH]c3ccccc23)[C@@H](c2c(F)cc([C@@H](O)C3CN(CCCF)C3)cc2F)N1C[C@H](F)CF [Compound 162, (S)-(4-((1R,3R)-2-((S)-2,3-difluoropropyl)-3-methyl-2,3,4,9-tetrahydro-1H-pyrido[3,4-b]indol-1-yl)-3,5-difluorophenyl)(1-(3-fluoropropyl)azetidin-3-yl)methanol] | – | – | −100% | – | 70 pM
16 | C[C@@H]1Cc2c([nH]c3ccccc23)[C@@H](c2c(F)cc([C@H](O)C3CN(CCCF)C3)cc2F)N1C[C@H](F)CF [Compound 163] | – | – | −102% | 200 pM | –
17 | CO[C@@H](c1cc(F)c([C@@H]2c3[nH]c4ccc(F)cc4c3C[C@@H](C)N2CC(F)(F)CO)c(F)c1)C1CN(CCCF)C1 [Compound 164, 3-((1R,3R)-1-(2,6-difluoro-4-((R)-(1-(3-fluoropropyl)azetidin-3-yl)(methoxy)methyl)phenyl)-6-fluoro-3-methyl-3,4-dihydro-1H-pyrido[3,4-b]indol-2(9H)-yl)-2,2-difluoropropan-1-ol] | – | – | −85% | 380 pM | –
18 | CO[C@H](c1cc(F)c([C@@H]2c3[nH]c4ccc(F)cc4c3C[C@@H](C)N2CC(F)(F)CO)c(F)c1)C1CN(CCCF)C1 [Compound 165, 3-((1R,3R)-1-(2,6-difluoro-4-((S)-(1-(3-fluoropropyl)azetidin-3-yl)(methoxy)methyl)phenyl)-6-fluoro-3-methyl-3,4-dihydro-1H-pyrido[3,4-b]indol-2(9H)-yl)-2,2-difluoropropan-1-ol] | – | – | −92% | 170 pM | –
19 | C[C@@H]1Cc2c([nH]c3ccccc23)[C@@H](c2c(F)cc(CC3CN(CCCF)C3)cc2F)N1C[C@H](F)CO [Compound 166, (S)-3-((1R,3R)-1-(2,6-difluoro-4-((1-(3-fluoropropyl)azetidin-3-yl)methyl)phenyl)-3-methyl-3,4-dihydro-1H-pyrido[3,4-b]indol-2(9H)-yl)-2-fluoropropan-1-ol] | – | – | −99% | 40 pM | –
